Measurements from ChEMBL document CHEMBL4376833, “Influence of Non-natural Cationic Amino Acids on the Biological Activity Profile of Innate Defense Regulator Peptides” (J Med Chem, 2019).
Activity calls are given as the source filed them. Non-standard residues stand in square brackets, D forms with d. Residues, ends and D or L forms follow the SMILES beside them. hArg = N=C(N)NCCCC[C@H](N)C(=O)O; Agb = N=C(N)NCC[C@H](N)C(=O)O; Agp = N=C(N)NC[C@H](N)C(=O)O; Orn = NCCC[C@H](N)C(=O)O; Dab = NCC[C@H](N)C(=O)O; Dap = NC[C@H](N)C(=O)O

Tests used:
Staphylococcus aureus [1] = assay: Antibacterial activity against methicillin-resistant Staphylococcus aureus assessed as alteration in bacterial growth incubated for overnight by microtiter plate based spectrophotometric analysis; format: functional, organism-based
Staphylococcus aureus [2] = assay: Antibiofilm activity against methicillin-resistant Staphylococcus aureus assessed as inhibition of biofilm formation incubated for overnight by crystal violet staining based microtiter plate assay; format: functional, organism-based
Staphylococcus aureus [3] = assay: Antibiofilm activity against methicillin-resistant Staphylococcus aureus assessed as inhibition of biofilm formation by measuring residual biofilm growth incubated for overnight at 10-fold dilution by crystal violet staining based microtiter plate assay relative to control; format: functional

| Molecule | Activity (Staphylococcus aureus [1]) | inhibition (Staphylococcus aureus [2]) | residual biofilm growth (% of control) (Staphylococcus aureus [3]) [%] | Activity (Staphylococcus aureus [3]) |
| --- | --- | --- | --- | --- |
| H-VRLIVAKRIWRR-NH2 | Active | Dose-dependent effect | 101.6 |  |
| CC[C@H](C)[C@H](NC(=O)[C@H](CCCNC(=N)N)NC(=O)[C@@H](NC(=O)[C@H](C)NC(=O)[C@@H](NC(=O)[C@@H](NC(=O)[C@H](CC(C)C)NC(=O)[C@H](CCCNC(=N)N)NC(=O)[C@@H](N)C(C)C)[C@@H](C)CC)C(C)C)C(C)C)C(=O)N[C@@H](Cc1c[nH]c2ccccc12)C(=O)N[C@@H](CCCCNC(=N)N)C(=O)N[C@@H](CCCNC(=N)N)C(N)=O (H-VRLIVAVRIW[hArg]R-NH2) | Active | Dose-dependent effect | 10.8 |  |
| CC[C@H](C)[C@H](NC(=O)[C@H](CC(C)C)NC(=O)[C@H](CCCNC(=N)N)NC(=O)[C@@H](N)C(C)C)C(=O)N[C@H](C(=O)N[C@@H](C)C(=O)N[C@H](C(=O)N[C@@H](CCCNC(=N)N)C(=O)N[C@@H](CCCCNC(=N)N)C(=O)N[C@@H](Cc1c[nH]c2ccccc12)C(=O)N[C@@H](CCCNC(=N)N)C(=O)N[C@@H](CCCNC(=N)N)C(N)=O)C(C)C)C(C)C (H-VRLIVAVR[hArg]WRR-NH2) | Active | Dose-dependent effect | 84.7 |  |
| CC[C@H](C)[C@H](NC(=O)[C@H](CCCNC(=N)N)NC(=O)[C@@H](NC(=O)[C@H](C)NC(=O)[C@@H](NC(=O)[C@@H](NC(=O)[C@H](CC(C)C)NC(=O)[C@H](CNC(=N)N)NC(=O)[C@@H](N)C(C)C)[C@@H](C)CC)C(C)C)C(C)C)C(=O)N[C@@H](Cc1c[nH]c2ccccc12)C(=O)N[C@@H](CCCNC(=N)N)C(=O)N[C@@H](CCCNC(=N)N)C(N)=O (H-V[Agp]LIVAVRIWRR-NH2) | Active | Dose-dependent effect | 28.3 |  |
| CC[C@H](C)[C@H](NC(=O)[C@H](CC(C)C)NC(=O)[C@H](CCCNC(=N)N)NC(=O)[C@@H](N)C(C)C)C(=O)N[C@H](C(=O)N[C@@H](C)C(=O)N[C@H](C(=O)N[C@@H](CCCNC(=N)N)C(=O)N[C@@H](CCNC(=N)N)C(=O)N[C@@H](Cc1c[nH]c2ccccc12)C(=O)N[C@@H](CCCNC(=N)N)C(=O)N[C@@H](CCCNC(=N)N)C(N)=O)C(C)C)C(C)C (H-VRLIVAVR[Agb]WRR-NH2) | Active | Dose-dependent effect | 103.6 |  |
| H-VRLIRAVRIWRR-NH2 | Active | Dose-dependent effect | 102 |  |
| CC[C@H](C)[C@H](NC(=O)[C@H](CCCN)NC(=O)[C@@H](NC(=O)[C@H](C)NC(=O)[C@@H](NC(=O)[C@@H](NC(=O)[C@H](CC(C)C)NC(=O)[C@H](CCCNC(=N)N)NC(=O)[C@@H](N)C(C)C)[C@@H](C)CC)C(C)C)C(C)C)C(=O)N[C@@H](Cc1c[nH]c2ccccc12)C(=O)N[C@@H](CCCNC(=N)N)C(=O)N[C@@H](CCCNC(=N)N)C(N)=O (H-VRLIVAV[Orn]IWRR-NH2) | Active | Dose-dependent effect | 14 |  |
| H-RRLIVAVRIWRR-NH2 | Active | Dose-dependent effect | 12.2 |  |
| H-VRLIVAVRIWKR-NH2 | Active | Dose-dependent effect | 11.8 |  |
| CC[C@H](C)[C@H](NC(=O)[C@H](CCCNC(=N)N)NC(=O)[C@@H](NC(=O)[C@H](C)NC(=O)[C@@H](NC(=O)[C@@H](NC(=O)[C@H](CC(C)C)NC(=O)[C@H](CCCNC(=N)N)NC(=O)[C@@H](N)C(C)C)[C@@H](C)CC)C(C)C)C(C)C)C(=O)N[C@@H](CCNC(=N)N)C(=O)N[C@@H](CCCNC(=N)N)C(=O)N[C@@H](CCCNC(=N)N)C(N)=O (H-VRLIVAVRI[Agb]RR-NH2) | Active | Dose-dependent effect | 103.7 |  |
| CC[C@H](C)[C@H](NC(=O)[C@H](CCCNC(=N)N)NC(=O)[C@@H](NC(=O)[C@H](CCCCNC(=N)N)NC(=O)[C@@H](NC(=O)[C@@H](NC(=O)[C@H](CC(C)C)NC(=O)[C@H](CCCNC(=N)N)NC(=O)[C@@H](N)C(C)C)[C@@H](C)CC)C(C)C)C(C)C)C(=O)N[C@@H](Cc1c[nH]c2ccccc12)C(=O)N[C@@H](CCCNC(=N)N)C(=O)N[C@@H](CCCNC(=N)N)C(N)=O (H-VRLIV[hArg]VRIWRR-NH2) | Active | Dose-dependent effect | 19.7 |  |
| CC[C@H](C)[C@H](NC(=O)[C@H](CCCNC(=N)N)NC(=O)[C@@H](NC(=O)[C@H](C)NC(=O)[C@@H](NC(=O)[C@H](CCN)NC(=O)[C@H](CC(C)C)NC(=O)[C@H](CCCNC(=N)N)NC(=O)[C@@H](N)C(C)C)C(C)C)C(C)C)C(=O)N[C@@H](Cc1c[nH]c2ccccc12)C(=O)N[C@@H](CCCNC(=N)N)C(=O)N[C@@H](CCCNC(=N)N)C(N)=O (H-VRL[Dab]VAVRIWRR-NH2) | Active | Dose-dependent effect | 103.3 |  |
| CC[C@H](C)[C@H](NC(=O)[C@H](CCCNC(=N)N)NC(=O)[C@@H](NC(=O)[C@H](C)NC(=O)[C@@H](NC(=O)[C@@H](NC(=O)[C@H](CC(C)C)NC(=O)[C@H](CCNC(=N)N)NC(=O)[C@@H](N)C(C)C)[C@@H](C)CC)C(C)C)C(C)C)C(=O)N[C@@H](Cc1c[nH]c2ccccc12)C(=O)N[C@@H](CCCNC(=N)N)C(=O)N[C@@H](CCCNC(=N)N)C(N)=O (H-V[Agb]LIVAVRIWRR-NH2) | Active | Dose-dependent effect | 29.6 |  |
| CC[C@H](C)[C@H](NC(=O)[C@H](CC(C)C)NC(=O)[C@H](CCCNC(=N)N)NC(=O)[C@@H](N)C(C)C)C(=O)N[C@H](C(=O)N[C@@H](C)C(=O)N[C@H](C(=O)N[C@@H](CCCNC(=N)N)C(=O)N[C@@H](CN)C(=O)N[C@@H](Cc1c[nH]c2ccccc12)C(=O)N[C@@H](CCCNC(=N)N)C(=O)N[C@@H](CCCNC(=N)N)C(N)=O)C(C)C)C(C)C (H-VRLIVAVR[Dap]WRR-NH2) | Active | Dose-dependent effect | 51.8 |  |
| CC[C@H](C)[C@H](NC(=O)[C@H](CCCNC(=N)N)NC(=O)[C@@H](NC(=O)[C@H](C)NC(=O)[C@@H](NC(=O)[C@@H](NC(=O)[C@H](CCN)NC(=O)[C@H](CCCNC(=N)N)NC(=O)[C@@H](N)C(C)C)[C@@H](C)CC)C(C)C)C(C)C)C(=O)N[C@@H](Cc1c[nH]c2ccccc12)C(=O)N[C@@H](CCCNC(=N)N)C(=O)N[C@@H](CCCNC(=N)N)C(N)=O (H-VR[Dab]IVAVRIWRR-NH2) | Active | Dose-dependent effect | 48.6 |  |
| CC[C@H](C)[C@H](NC(=O)[C@H](CCCNC(=N)N)NC(=O)[C@@H](NC(=O)[C@H](C)NC(=O)[C@@H](NC(=O)[C@@H](NC(=O)[C@H](CC(C)C)NC(=O)[C@H](CCCCNC(=N)N)NC(=O)[C@@H](N)C(C)C)[C@@H](C)CC)C(C)C)C(C)C)C(=O)N[C@@H](Cc1c[nH]c2ccccc12)C(=O)N[C@@H](CCCNC(=N)N)C(=O)N[C@@H](CCCNC(=N)N)C(N)=O (H-V[hArg]LIVAVRIWRR-NH2) | Active | Dose-dependent effect | 38.4 |  |
| CC[C@H](C)[C@H](NC(=O)[C@H](CCCNC(=N)N)NC(=O)[C@@H](NC(=O)[C@H](CCN)NC(=O)[C@@H](NC(=O)[C@@H](NC(=O)[C@H](CC(C)C)NC(=O)[C@H](CCCNC(=N)N)NC(=O)[C@@H](N)C(C)C)[C@@H](C)CC)C(C)C)C(C)C)C(=O)N[C@@H](Cc1c[nH]c2ccccc12)C(=O)N[C@@H](CCCNC(=N)N)C(=O)N[C@@H](CCCNC(=N)N)C(N)=O (H-VRLIV[Dab]VRIWRR-NH2) | Active | Dose-dependent effect | 52.7 |  |
| CC[C@H](C)[C@H](NC(=O)[C@H](CCCNC(=N)N)NC(=O)[C@@H](NC(=O)[C@H](C)NC(=O)[C@@H](NC(=O)[C@@H](NC(=O)[C@H](CC(C)C)NC(=O)[C@H](CCCNC(=N)N)NC(=O)[C@@H](N)C(C)C)[C@@H](C)CC)C(C)C)C(C)C)C(=O)N[C@@H](Cc1c[nH]c2ccccc12)C(=O)N[C@@H](CCCNC(=N)N)C(=O)N[C@@H](CCN)C(N)=O (H-VRLIVAVRIWR[Dab]-NH2) |  |  |  | inactive |
| CC[C@H](C)[C@H](NC(=O)[C@H](CCCNC(=N)N)NC(=O)[C@@H](NC(=O)[C@H](C)NC(=O)[C@@H](NC(=O)[C@@H](NC(=O)[C@H](CC(C)C)NC(=O)[C@H](CCCNC(=N)N)NC(=O)[C@@H](N)C(C)C)[C@@H](C)CC)C(C)C)C(C)C)C(=O)N[C@@H](Cc1c[nH]c2ccccc12)C(=O)N[C@@H](CNC(=N)N)C(=O)N[C@@H](CCCNC(=N)N)C(N)=O (H-VRLIVAVRIW[Agp]R-NH2) |  |  |  | inactive |
| CC[C@H](C)[C@H](NC(=O)[C@H](CCCNC(=N)N)NC(=O)[C@@H](NC(=O)[C@H](C)NC(=O)[C@@H](NC(=O)[C@@H](NC(=O)[C@H](CC(C)C)NC(=O)[C@H](CCCNC(=N)N)NC(=O)[C@@H](N)C(C)C)[C@@H](C)CC)C(C)C)C(C)C)C(=O)N[C@@H](Cc1c[nH]c2ccccc12)C(=O)N[C@@H](CCNC(=N)N)C(=O)N[C@@H](CCCNC(=N)N)C(N)=O (H-VRLIVAVRIW[Agb]R-NH2) |  |  |  | inactive |
| CC[C@H](C)[C@H](NC(=O)[C@H](CCCNC(=N)N)NC(=O)[C@@H](NC(=O)[C@H](C)NC(=O)[C@@H](NC(=O)[C@@H](NC(=O)[C@H](CC(C)C)NC(=O)[C@H](CCCNC(=N)N)NC(=O)[C@@H](N)C(C)C)[C@@H](C)CC)C(C)C)C(C)C)C(=O)N[C@@H](Cc1c[nH]c2ccccc12)C(=O)N[C@@H](CCCNC(=N)N)C(=O)N[C@@H](CNC(=N)N)C(N)=O (H-VRLIVAVRIWR[Agp]-NH2) |  |  |  | inactive |
| CC[C@H](C)[C@H](NC(=O)[C@H](CCCNC(=N)N)NC(=O)[C@@H](NC(=O)[C@H](C)NC(=O)[C@@H](NC(=O)[C@@H](NC(=O)[C@H](CC(C)C)NC(=O)[C@H](CCCNC(=N)N)NC(=O)[C@@H](N)C(C)C)[C@@H](C)CC)C(C)C)C(C)C)C(=O)N[C@@H](Cc1c[nH]c2ccccc12)C(=O)N[C@@H](CCN)C(=O)N[C@@H](CCCNC(=N)N)C(N)=O (H-VRLIVAVRIW[Dab]R-NH2) |  |  |  | inactive |
